Assay results taken from patent US11859234B2, “Method of monitoring RNase L activity” (THE TRUSTEES OF PRINCETON UNIVERSITY, priority 2016, dated 2024).

Legend:
[1] = biological target: T1, RNase L (Homo sapiens, UniProt Q05823); assay: RNA sequencing of RNase L cleavage products in permeabilized T47D cells stimulated with 2-5A; format: cell-based; design: endogenous in cells; details: 1 μM 2-5A for 3 minutes compared with 1 minute
T1 sequence (Q05823 1-741): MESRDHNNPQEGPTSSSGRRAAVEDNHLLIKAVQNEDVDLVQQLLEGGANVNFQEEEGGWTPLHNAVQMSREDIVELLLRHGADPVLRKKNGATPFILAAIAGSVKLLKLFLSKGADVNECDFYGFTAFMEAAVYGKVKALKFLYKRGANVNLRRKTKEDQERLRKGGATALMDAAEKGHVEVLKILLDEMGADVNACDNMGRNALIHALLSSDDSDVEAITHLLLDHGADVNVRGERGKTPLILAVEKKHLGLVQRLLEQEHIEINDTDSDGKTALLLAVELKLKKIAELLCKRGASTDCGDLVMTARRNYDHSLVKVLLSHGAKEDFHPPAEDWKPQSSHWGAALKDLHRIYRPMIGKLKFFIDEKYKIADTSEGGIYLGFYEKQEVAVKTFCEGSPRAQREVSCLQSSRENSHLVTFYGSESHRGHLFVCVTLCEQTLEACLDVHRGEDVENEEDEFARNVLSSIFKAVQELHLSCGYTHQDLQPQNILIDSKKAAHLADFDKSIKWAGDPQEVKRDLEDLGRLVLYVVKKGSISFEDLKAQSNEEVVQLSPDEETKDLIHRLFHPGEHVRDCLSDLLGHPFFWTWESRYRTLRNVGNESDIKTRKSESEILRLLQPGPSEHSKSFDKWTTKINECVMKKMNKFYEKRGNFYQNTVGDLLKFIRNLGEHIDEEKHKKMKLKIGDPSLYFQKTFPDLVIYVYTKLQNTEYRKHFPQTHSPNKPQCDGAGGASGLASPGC
Procedure: Initially, approximately 500 ng-1 μg miRvana purified small RNAs is ligated to the ligation adapter (5′-[…]-3′(SEQ ID NO: 1), underlined portion is RNA) using RtcB. It is contemplated that the adaptor has a 3′-desthiobiotin modification. The ligated RNAs are separated from free adapter by resolving on 10% urea PAGE by staining gel and excising all RNA larger than the free adapter. RNA is eluted from gel slices overnight at 4° C. in TE buffer pH 7.5 supplemented with 0.05% Triton X-100. Glycogen is added to RNAs and precipitated with 3 volumes of 100% ethanol and 1/10 volume 3M sodium acetate pH 5.2. The sample is then incubated on dry ice for 30 minutes. […]
Libraries are assessed on an Agilent High Sensitivity DNA chip, and equimolar amounts of libraries pooled and resolved on 6% native PAGE and visualized by gel staining. […] Libraries are now ready for sequencing on the Illumina HiSeq 2000 platform.
The RNA sequencing experiments were also carried out in HeLa cells that overexpress RNase L (RNLoe) and in T47D cells derived from human breast cancer and that have been permeablized and stimulated for 1 minute or 3 minutes with 1 μM 2-5A, which specifically activates RNase L but not other pathways. Results of the primary types of cleavage products detected, e.g., tRNA-His, tRNA-Pro, RNY1, RNY3, RNY4 and RNY5, were similar. […]

[2] = biological target: T1, RNase L; assay: qPCR detection of tRNA His-GUG-36 RNase L cleavage product in poly I:C stimulated HeLa cells; format: cell-based; design: endogenous in cells; host or cells: HeLa cells; details: total RNA, RtcB ligation, qPCR with His-GUG-36-2 primer, ΔΔCt method (FIG. 4F)
Procedure: Reaction components useful in the ligation reaction include the following: 2-500 ng purified RNA, 30 μM RtcB ligase, 1 U/μL RNase inhibitor, 10 μM ligation adapter, 100 μM GTP, 20 mM HEPES pH 7.5, 2 mM MnCl2, 110 mM NaCl, 4 mM DTT, 2.2% glycerol (carried into the reaction with RtcB and RNase inhibitor). The standard reaction volume is 10 μL with incubation for 1 hour at 37° C.
After incubation 1 μL of 33 mM EDTA is added followed by a brief room temperature incubation (usually 5-10 minutes) giving a final concentration of EDTA of 3 mM. EDTA is added to chelate Mn^2+ ions that might interfere in downstream steps as well as to stop the ligation reaction.
1 μL of EDTA quenched ligation reaction is mixed with dNTPs and 10 picomoles (pmol) of RT primer in 10 μL volume. The mixture is incubated at 65° C. for 5 minutes then placed on ice (optional). The remaining components are added for a 20 μL reverse transcription reaction: RT buffer, 0.2 U μL RNase inhibitor, Reverse transcriptase (added last), and H2O for 20 μL final volume and incubated according to the RT manufacturer's specifications. […]
For the qPCR, total purified RNA from non-stimulated and poly I:C stimulated HeLa cells was serially diluted, ligated to the adapter with RtcB, reverse transcribed, and detected by qPCR using the His-GUG-36-2 primer and qPCR reverse primer.

Substance	RNA cleavage profile of RNase L products [1]	number of tRNA His-GUG-36-2 cleavage products compared to non-stimulated cells [2]
2′,5′-oligoadenylate [2-5A]	enhanced induction of RNA cleavage of the same products	
polyinosinic-polycytidylic acid [polyI:C]		significantly increased
